Some test systems named below: HCC-2998 colon; SW-620 colon; EKVX NSCLC; SNB-75 CNS; COLO 205 colon; NCI/ADR-RES ovarian; HCT-116 colon; KM12 colon; A549 NSCLC; NCI-H226 lung.
Holding throughout (experiment): inhibition of tumour cell growth, NCI panel, 48 h

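96-well plates; 48 h exposure; 5 concentrations. Endpoints by linear interpolation between flanking doses. Not reached: highest tested concentration assigned. GI50 is the concentration that inhibits growth by half. TGI: total growth inhibition.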

Take `COC(=O)c1cc(C)ccc1CC(Cc1cccc(C)c1)C(=O)OC` (centres undefined): the TGI in the assay on HCC-2998 colon, with SW-620 colon, in the assay with EKVX NSCLC, in the assay on SNB-75 CNS, in the assay with COLO 205 colon and in the assay on NCI/ADR-RES ovarian was over 100 µM throughout. Also, the TGI in the assay on HCT-116 colon, with KM12 colon, in the assay on A549 NSCLC and in the assay on NCI-H226 lung was over 100 µM throughout.
Take `CC(=O)c1ccc(N=Nc2ccc3nonc3c2N)cc1`: the TGI in the assay on HCC-2998 colon, in the assay with SW-620 colon, in the assay on EKVX NSCLC, in the assay with SNB-75 CNS, in the assay with COLO 205 colon and with NCI/ADR-RES ovarian was over 100 µM in each case. The TGI in the assay on HCT-116 colon, in the assay with KM12 colon, in the assay on A549 NSCLC and in the assay with NCI-H226 lung was over 100 µM throughout.
`COc1cc2c(cc1C[N+](C)(C)CSc1ccccc1)-c1ccccc1CC2`: the TGI in the assay on HCC-2998 colon was 13.6 µM; with SW-620 colon, over 41.3 µM; in the assay with EKVX NSCLC, 23.7 µM; in the assay on SNB-75 CNS it was 6.17 µM; with COLO 205 colon, 5.73 µM; in the assay on NCI/ADR-RES ovarian, over 100 µM. The TGI in the assay on HCT-116 colon was 13.1 µM; in the assay with KM12 colon, 6.92 µM; in the assay on A549 NSCLC it was 45.8 µM; in the assay with NCI-H226 lung it was 23.6 µM.
Regarding `COc1cc(-c2nc3cc(F)ccc3s2)ccc1O`, the TGI with HCC-2998 colon was 55.5 µM; in the assay with SW-620 colon, over 100 µM; in the assay on EKVX NSCLC it was 53.5 µM; in the assay with COLO 205 colon, over 100 µM; in the assay with NCI/ADR-RES ovarian, over 100 µM; with HCT-116 colon, over 100 µM. The TGI in the assay with KM12 colon, with A549 NSCLC and with NCI-H226 lung was over 100 µM each time.
With `CSc1nc(NC2CCCC2)c2cc[nH]c2n1`, the TGI with HCC-2998 colon, with SW-620 colon, in the assay on EKVX NSCLC, with COLO 205 colon, in the assay with NCI/ADR-RES ovarian and with HCT-116 colon was over 100 µM throughout. The TGI with KM12 colon, with A549 NSCLC and in the assay with NCI-H226 lung was over 100 µM throughout.
With `Cc1ccc2[nH]cc(-c3nc(-c4c[nH]c5ncccc45)cs3)c2c1`, the GI50 in the assay on HCC-2998 colon is over 100 µM; in the assay on SW-620 colon it was over 100 µM; in the assay with SNB-75 CNS, over 100 µM; in the assay on COLO 205 colon it was 0.349 µM; in the assay with NCI/ADR-RES ovarian, over 100 µM; with HCT-116 colon, over 100 µM. Further, the GI50 in the assay with KM12 colon, in the assay on A549 NSCLC and with NCI-H226 lung was over 100 µM throughout. For the same compound, the TGI in the assay on HCC-2998 colon, in the assay on SW-620 colon, in the assay on SNB-75 CNS, in the assay with COLO 205 colon, in the assay with NCI/ADR-RES ovarian and in the assay with HCT-116 colon was over 100 µM each time. Besides, the TGI in the assay on KM12 colon, in the assay on A549 NSCLC and with NCI-H226 lung was over 100 µM throughout.
As to `S=C1c2ccccc2NC(=NC2CCCC2)C2CSCN12` (centres undefined), the TGI with HCC-2998 colon, in the assay on SW-620 colon, in the assay with EKVX NSCLC, in the assay on COLO 205 colon, in the assay on NCI/ADR-RES ovarian and with HCT-116 colon was over 100 µM each time. Moreover, the TGI in the assay with KM12 colon, in the assay with A549 NSCLC and in the assay with NCI-H226 lung was over 100 µM in each case.
In the case of `CCCCOC(=O)C(=O)C(CCC(=O)c1ccc(C)cc1)C(=O)C=C(C)C` (centres undefined), the TGI with HCC-2998 colon, in the assay with SW-620 colon, with EKVX NSCLC, with SNB-75 CNS, in the assay on NCI/ADR-RES ovarian and in the assay on HCT-116 colon was over 100 µM throughout. The TGI in the assay on KM12 colon, in the assay with A549 NSCLC and in the assay with NCI-H226 lung was over 100 µM each time.
As for `Cc1ccc(C(=O)N(C2CCCCC2)C2CCCCC2)cc1N=NN(C)C`, the TGI in the assay with HCC-2998 colon came out at 29.4 µM; in the assay with SW-620 colon, 24.5 µM; in the assay on EKVX NSCLC, 32.3 µM; with COLO 205 colon it was 33.6 µM; in the assay on NCI/ADR-RES ovarian it was 47.8 µM; in the assay with HCT-116 colon it was 27.8 µM. In addition, the TGI in the assay on KM12 colon turned out to be 18.7 µM; in the assay on A549 NSCLC, 31.8 µM; with NCI-H226 lung, 39.5 µM.
In the case of `OC(C1CCC=NN1C(O)(C(F)(F)F)C(F)(F)F)(C(F)(F)F)C(F)(F)F` (centres undefined), the TGI with HCC-2998 colon, in the assay on EKVX NSCLC, in the assay with SNB-75 CNS, with COLO 205 colon, with NCI/ADR-RES ovarian and with HCT-116 colon was over 10 µM throughout. In addition, the TGI with KM12 colon, in the assay on A549 NSCLC and in the assay with NCI-H226 lung was over 10 µM each time.
For `COc1ccc(N(C(=O)Nc2ccc(Cl)c(Cl)c2)c2ccccc2)cc1`, the TGI in the assay with HCC-2998 colon, in the assay on SW-620 colon, with EKVX NSCLC, with COLO 205 colon, with NCI/ADR-RES ovarian and in the assay on HCT-116 colon was over 10 µM each time. The TGI in the assay on KM12 colon, in the assay with A549 NSCLC and with NCI-H226 lung was over 10 µM each time.
On to `Cc1ccc(C(=O)OC[C@H]2CC[C@@H](n3cc(N(C)C4CCCCC4)c(=O)[nH]c3=O)O2)cc1`, for which the TGI is over 100 µM in the assay with HCC-2998 colon; over 100 µM in the assay with SW-620 colon; over 100 µM in the assay with EKVX NSCLC; 39.5 µM in the assay with COLO 205 colon; 56.7 µM with NCI/ADR-RES ovarian; 32.4 µM with HCT-116 colon. Further, the TGI is 40.9 µM in the assay on KM12 colon, over 100 µM in the assay with A549 NSCLC and 56.6 µM with NCI-H226 lung.
On to `Cc1cc2c(cc1Cl)Sc1nnc(Nc3ccccc3)n1S2(=O)=O`, for which the TGI was 14.2 µM with HCC-2998 colon; over 100 µM with SW-620 colon; 34.3 µM with EKVX NSCLC; 23.7 µM with SNB-75 CNS; 23.4 µM in the assay with NCI/ADR-RES ovarian; 37.1 µM in the assay with HCT-116 colon. For the same compound, the TGI with KM12 colon was 57.5 µM; in the assay with A549 NSCLC it was 32.7 µM; in the assay with NCI-H226 lung, 10.7 µM.

These data come from PubChem BioAssay (NCI).
